The source of these data is patent US11576897B2, “Therapeutic agent for non-motor symptoms associated with Parkinson's disease” (priority 2017, dated 2023).

The target of assay [1] is human 5-HT2A receptor (Homo sapiens (Human), UniProt P28223). Description: biochemical. The format is binding.
Assay [2] has as its target human serotonin transporter (SERT) (Homo sapiens (Human), UniProt P31645). Description: Human serotonin transporter (SERT) binding test.
In assay [3] the target is serotonin 5-HT2A receptor (Rattus norvegicus (Rat), UniProt P14842). Description: Rat tryptamine-induced forelimb clonic convulsion model. The format is in vivo. The settings on record: orally or subcutaneously 60 minutes before tryptamine 25 mg/kg intravenously, SD-male rats.
Protocol: Test 2: Rat Tryptamine-Induced Forelimb Clonic Convulsion Model for Evaluation of In Vivo Serotonin 5-HT2A Receptor Antagonism
Evaluation was conducted in a rodent tryptamine-induced forelimb clonic convulsion model which has been known as one of the methods for assessing the serotonin 5-HT2A receptor antagonism in vivo.
Seven-week-old SD-male rats were used. A dose solution for a test compound was prepared with 0.5% methylcellulose solution or saline for a solvent. A test compound was used in the form of a dose solution obtained by mixing with 0.5% methylcellulose solution to get cloudy (for oral administration) or dissolving in saline (for subcutaneous administration). Tryptamine was used and dissolved in saline as a substance inducing clonic convulsion.
A dose solution of a test compound or a solvent only was administered orally or subcutaneously to rats at the start of the test, and after 60 minutes of the administration, a saline solution containing tryptamine 25 mg/kg was administered intravenously to rats. Rats were transferred to an observation cage right after the administration of tryptamine, and their forelimb clonic convulsion was evaluated for 3 minutes.
The average inhibition ratio of each individual calculated from the following equation was deemed to be the inhibition ratio of each administration group. Inhibition ratio of each individual=(Average score of the solvent-administered group−Score of each individual)/Average score of the solvent-administered group×100
Statistical analysis of the test results was conducted by the following procedures with Stat Preclinica (Takumi Information Technology):
1) Jonckheere-Terpstra test was conducted in the solvent-administered group and test compound-administered group with the forelimb clonic convulsion score as indicator. […] 2) Non-parametric Dunnett's multiple comparison (Joint Ranking)-measured value was conducted between the solvent-administered group and test compound-administered group with the forelimb clonic convulsion score as indicator. […]
Assay [4] addresses human D2L receptor (Homo sapiens (Human), UniProt P14416). Put plainly: Dopamine D2L receptor binding test.
For assay [5], the target named is human 5-HT2C receptor (Homo sapiens (Human), UniProt P28335).
human 5-HT2C receptor, sequence (P28335 whole entry, looked up): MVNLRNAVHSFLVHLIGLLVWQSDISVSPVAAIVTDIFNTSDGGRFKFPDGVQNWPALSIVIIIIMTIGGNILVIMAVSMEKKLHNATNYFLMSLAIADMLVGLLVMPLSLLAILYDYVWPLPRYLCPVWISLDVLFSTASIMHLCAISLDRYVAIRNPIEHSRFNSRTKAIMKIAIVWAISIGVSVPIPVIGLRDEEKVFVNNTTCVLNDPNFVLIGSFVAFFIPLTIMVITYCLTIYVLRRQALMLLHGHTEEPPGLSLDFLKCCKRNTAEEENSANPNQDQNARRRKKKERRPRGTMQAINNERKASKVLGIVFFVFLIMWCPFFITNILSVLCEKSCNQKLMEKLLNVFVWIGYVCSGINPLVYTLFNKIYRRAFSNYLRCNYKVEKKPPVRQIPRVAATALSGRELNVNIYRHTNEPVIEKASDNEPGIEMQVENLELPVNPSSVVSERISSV
Where [6] appears, read: [3H]-ketanserin, human 5-HT2A receptor-expressed CHO cell membrane, read-out: 5-HT2A receptor binding inhibition constant Ki.
Setting [7] is: [3H]-citalopram, h-SERT/CHO cell membrane, read-out: h-SERT binding inhibition constant Ki.
The mark [8] stands for this setting: read-out: 5-HT2A receptor binding inhibition constant Ki.

pIC50, pKi: −log10 of the molar value. Where a name gives a salt, the structure may show the parent alone. Read-outs that look alike come from different tables or passages of the source. Marks after values point to notes of the source that are not given here.

human D2L receptor, sequence (P14416 whole entry): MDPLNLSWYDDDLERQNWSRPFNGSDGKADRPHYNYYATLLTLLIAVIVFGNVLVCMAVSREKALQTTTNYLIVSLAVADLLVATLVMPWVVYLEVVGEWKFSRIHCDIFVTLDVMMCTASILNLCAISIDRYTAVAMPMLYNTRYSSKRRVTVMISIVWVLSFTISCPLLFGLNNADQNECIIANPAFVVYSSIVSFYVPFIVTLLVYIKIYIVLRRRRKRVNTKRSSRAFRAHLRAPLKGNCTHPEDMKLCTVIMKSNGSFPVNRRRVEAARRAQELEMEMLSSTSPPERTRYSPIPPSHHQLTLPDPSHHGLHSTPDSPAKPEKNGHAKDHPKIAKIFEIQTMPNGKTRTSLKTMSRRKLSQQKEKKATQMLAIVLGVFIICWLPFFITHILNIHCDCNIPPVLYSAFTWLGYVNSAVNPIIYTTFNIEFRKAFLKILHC

A word on the pKi: it is the Ki on a negative log10 scale, so that one unit is a factor of ten. `CNCc1cc(OCc2cc(F)ccc2F)n(CC2CCCC2)n1.Cl` [Example 147, 1-{1-(cyclopentylmethyl)-5-[(2,5-difluorobenzyl)oxy]-1H-pyrazol-3-yl}-N-methylmethanamine]: the pKi in assay [1] (setting [6]) is 8.66; in assay [2] (setting [7]) it was 9.21. The Inhibition ratio was 46% in assay [3] (dose 1 mg/kg), 46% in assay [3] (dose 3 mg/kg) and 71%** in assay [3] (dose 10 mg/kg).

The pIC50 is −log10 of the IC50, conventionally taken in molar units. Low readings indicate a large IC50, high ones a small IC50. Take `CNCc1cc(OCc2cc(Cl)ccc2F)n(CCC(C)(C)OC)n1` [Example 275, 1-{5-[(5-chloro-2-fluorobenzyl)oxy]-1-(3-methoxy-3-methylbutyl)-1H-pyrazol-3-yl}-N-methylmethanamine]: in assay [1] (setting [6]), the pKi was 8.23. In assay [4], this compound gave a negative-log IC50 (pIC50) of less than 6.00.

Turning to `CNCc1cc(OCc2ccccc2)n(C(C)C2CCCCC2)n1` (stereo not shown) [Example 292, 1-[5-(benzyloxy)-1-(1-cyclohexylethyl)-1H-pyrazol-3-yl]-N-methylmethanamine], the pKi was 8.92 in assay [1] (setting [6]) and 9.02 in assay [2] (setting [7]).

Consider `CNCc1cc(OCc2ccccc2F)n(C(C)C2CCCCC2)n1` (stereo not shown) [Example 293, 1-{1-(1-cyclohexylethyl)-5-[(2-fluorobenzyl)oxy]-1H-pyrazol-3-yl}-N-methylmethanamine], for which the negative logarithm of the Ki (pKi) is 8.96 in assay [1] (setting [6]) and 9.17 in assay [2] (setting [7]).

For `CNCc1cc(OCc2ccc(F)cc2)n(C(C)C2CCCCC2)n1` (stereo not shown) [Example 295, 1-{1-(1-cyclohexylethyl)-5-[(4-fluorobenzyl)oxy]-1H-pyrazol-3-yl}-N-methylmethanamine], the negative-log Ki (pKi) is 9.13 in assay [1] (setting [6]) and 9.02 in assay [2] (setting [7]).

As to `CNCc1cc(OCc2ccccc2Cl)n(C(C)C2CCCCC2)n1` (stereo not shown) [Example 296, 1-{5-[(2-chlorobenzyl)oxy]-1-(1-cyclohexylethyl)-1H-pyrazol-3-yl}-N-methylmethanamine], the pKi in assay [1] (setting [6]) was 8.68; in assay [2] it was 9.04; in assay [5], 8.21.

On to `CNCc1cc(OCc2ccccc2C)n(C(C)C2CCCCC2)n1` (stereo not shown) [Example 298, 1-{1-(1-cyclohexylethyl)-5-[(2-methylbenzyl)oxy]-1H-pyrazol-3-yl}-N-methylmethanamine], for which the pKi is 8.48 in assay [1] (setting [6]) and 9.25 in assay [2] (setting [7]).

As to `CNCc1cc(OCc2cccc(C)c2)n(C(C)C2CCCCC2)n1` (stereo not shown) [Example 299, 1-{1-(1-cyclohexylethyl)-5-[(3-methylbenzyl)oxy]-1H-pyrazol-3-yl}-N-methylmethanamine], the figures for the pKi in assay [1] (setting [6]) and in assay [2] (setting [7]) were 8.25 and 8.85, respectively.

In the case of `CNCc1cc(OCc2ccc(F)cc2F)n(C(C)C2CCCCC2)n1` (stereo not shown) [Example 300, 1-{1-(1-cyclohexylethyl)-5-[(2,4-difluorobenzyl)oxy]-1H-pyrazol-3-yl}-N-methylmethanamine], the pKi in assay [1] (setting [6]) is 9.24; in assay [2] (setting [7]), 8.74.

`CNCc1cc(OCc2ccc(F)cc2Cl)n(C(C)C2CCCCC2)n1` (stereo not shown) [Example 301, 1-{5-[(2-chloro-4-fluorobenzyl)oxy]-1-(1-cyclohexylethyl)-1H-pyrazol-3-yl}-N-methylmethanamine]: the pKi in assay [1] (setting [6]) was 9.06; in assay [2] (setting [7]) it was 8.89.

As to `CNCc1cc(OCc2ccc(F)cc2C)n(C(C)C2CCCCC2)n1` (stereo not shown) [Example 302, 1-{1-(1-cyclohexylethyl)-5-[(4-fluoro-2-methylbenzyl)oxy]-1H-pyrazol-3-yl}-N-methylmethanamine], the figures for the pKi in assay [1] (setting [6]) and in assay [2] (setting [7]) were 9.03 and 8.85, respectively.

Turning to `CNCc1cc(OCc2cc(F)ccc2F)n(C(C)C2CCCCC2)n1` (stereo not shown) [Example 303, 1-{1-(1-cyclohexylethyl)-5-[(2,5-difluorobenzyl)oxy]-1H-pyrazol-3-yl}-N-methylmethanamine], the pKi in assay [1] (setting [6]) was 8.74; in assay [2] (setting [7]), 9.34.

As to `CNCc1cc(OCc2cc(Cl)ccc2F)n(C(C)C2CCCCC2)n1` (stereo not shown) [Example 304, 1-{5-[(5-chloro-2-fluorobenzyl)oxy]-1-(1-cyclohexylethyl)-1H-pyrazol-3-yl}-N-methylmethanamine], the pKi in assay [1] (setting [8]) was 8.85; in assay [2] (setting [7]), 8.89.

Turning to `CNCc1cc(OCc2cc(C)ccc2F)n(C(C)C2CCCCC2)n1` (stereo not shown) [Example 305, 1-{1-(1-cyclohexylethyl)-5-[(2-fluoro-5-methylbenzyl)oxy]-1H-pyrazol-3-yl}-N-methylmethanamine], the pKi is 8.60 in assay [1] (setting [8]) and 8.70 in assay [2] (setting [7]).

Consider `CNCc1cc(OCc2ccccc2)n(CC2(C)CCCCC2)n1` [Example 331, 1-{5-(benzyloxy)-1-[(1-methylcyclohexyl)methyl]-1H-pyrazol-3-yl}-N-methylmethanamine], for which the values for the pKi in assay [1] (setting [6]) and in assay [2] (setting [7]) were 8.55 and 8.89, respectively.

As to `CNCc1nn(CC2CCCCC2)c(OCc2cc(F)ccc2F)c1F` [Example 351], the pKi in assay [1] (setting [6]) was 7.82; in assay [2] (setting [7]) it was 9.01.

On to `[2H]C([2H])(NC)c1cc(OCc2ccccc2)n(CC2CCCCC2)n1` [Example 492, 1-[5-(Benzyloxy)-1-(cyclohexylmethyl)-1H-pyrazol-3-yl]-N-methyl(^2H2)methanamine], for which the pKi in assay [1] was 8.54; in assay [2] it was 8.85; in assay [5], 8.17.

For `[2H]C([2H])([2H])NC([2H])([2H])c1cc(OCc2ccccc2)n(CC2CCCCC2)n1` [Example 493, 1-[5-(Benzyloxy)-1-(cyclohexylmethyl)-1H-pyrazol-3-yl]-N-(^2H3)methyl(^2H2) methanamine], the pKi in assay [1] is 8.64; in assay [2], 8.96; in assay [5] it was 8.14.

Take `[2H]C([2H])([2H])NCc1cc(OCc2ccccc2)n(CC2CCCCC2)n1` [Example 494, 1-[5-(Benzyloxy)-1-(cyclohexylmethyl)-1H-pyrazol-3-yl]-N-(^2H3)methylmethanamine]: the pKi in assay [1] is 8.44; in assay [2], 8.96; in assay [5], 8.15.

Regarding `[2H]C([2H])(Oc1cc(CNC)nn1CC1CCCC1)c1cc(F)ccc1F` [Example 495, 1-[1-(Cyclopentylmethyl)-5-{[(2,5-difluorophenyl) (^2H2)methyl]oxy}-1H-pyrazol-3-yl]-N-methylmethanamine Hydrochloride], the negative logarithm of the Ki (pKi) in assay [1] (setting [6]) is 8.70; in assay [2] it was 9.62; in assay [5] it was 8.60.

Take `Cl.[2H]C([2H])(Oc1cc(CNC)nn1CC1CCCC1)c1cc(Cl)ccc1F` [Example 496, 1-[5-{[(5-Chloro-2-fluorophenyl) (^2H2)methyl]oxy}-1-(cyclopentylmethyl)-1H-pyrazol-3-yl]-N-methylmethanamine Hydrochloride]: the pKi in assay [1] was 8.77; in assay [2] it was 8.70; in assay [5], 8.96.

Compound `CNCc1cc(OCc2cc(F)ccc2F)n(CCC(C)(C)C)n1` [Example 500, 1-{5-[(2,5-Difluorobenzyl)oxy]-1-(3,3-dimethylbutyl)-1H-pyrazol-3-yl}-N-methylmethanamine Monophosphate] showed a pIC50 in assay [4] of less than 6.00.

`CNCc1cc(OCc2cc(F)ccc2F)n(CC(C)(C)C)n1` [Example 504, 1-{5-[(2,5-Difluorobenzyl)oxy]-1-(2,2-dimethylpropyl)-1H-pyrazol-3-yl}-N-methylmethanamine monophosphate dihydrate] had a pIC50 in assay [4] of less than 6.00.

On to `CNCc1cc(OCc2cccc(Cl)c2)n(CC2OC3CCC2CC3)n1` (stereo not shown) [Example 508, 1-{5-[(3-chlorobenzyl)oxy]-1-(2-oxabicyclo[2.2.2]oct-3-ylmethyl)-1H-pyrazol-3-yl}-N-methylmethanamine], for which the pKi in assay [1] (setting [6]) was 8.03; in assay [2] (setting [7]), 8.09.
